Results published in US6673832B1, “Methods for identifying compounds for treating pain” (priority 1998, dated 2004).
Like-named read-outs stand apart in the source and are kept apart here. Square brackets hold non-standard residues; d marks the D form. Peptide text beside a SMILES is read from it.

Legend:
[1] = tested on: ET-1-induced hindpaw flinching; assay: Blockade of ET-1-induced hindpaw flinching; type: in vivo, rat; conditions: for effect on ET-1 induced hindpaw flinching: antagonist 3 mM epineurial, 20, 10 and 0 min prior to ET-1 400 μM; for significance of difference from ET-1 alone in hindpaw flinching (FIG. 3): antagonist 3 mM, 20, 10 and 0 min prior to ET-1 400 μM
Description: (§1) Surgical Procedures. Adult male Sprague Dawley rats (175-225 g) were anesthetized with an intermediate-onset, short-acting volatile anesthetic (Sevaflurane, Abbott Laboratories, North Chicago, Ill.). After shaving of the hair over the left or right flank and incision of the skin, blunt dissection was made through the biceps femoris, the sciatic nerve exposed by careful microdissection away from the surrounding connective tissue, and gently elevated by insertion of a small curved hemostat placed beneath it. Following drug administration, as described below, the biceps femoris was closed with a single silk suture, and the skin closed with surgical staples.
(§2) Drug administration. The following drugs were applied epineurially: 1) 40-800 μM endothelin-1 (ET-1) (synthetic, 98% pure peptide content, American Peptides Co., Sunnyvale, Calif.); 2) the selective endothelin-A receptor antagonist, BQ-123 (American Peptides Co.; Sunnyvale, Calif.) at 3 mM; 3) the selective endothelin-B receptor antagonist, BQ-788 (American Peptides Co.; Sunnyvale, Calif.) at 3 mM; and 400 μM epinephrine (American Regent Laboratories, Inc., Shirley, N.Y.).
(§3) All drugs were dissolved in phosphate buffered saline (PBS, pH=7.4), and applied in 40 μl volumes to the epineurial surface of the exposed sciatic nerve (n=10 rats/condition). The total time for each drug application was 3-4 min. BQ-123 and BQ-788 were applied in 3 stages: 20 min prior to, 10 min prior to and 30 sec before ET-1 application. PBS was administered to control animals. Excess drug or PBS solution was absorbed by cotton gauze placed at the edge of the exposed nerve.
Morphine was administered systemically immediately before anesthesia (10 mg/kg, ip). Naloxone was administered systemically 20 min after the completion of ET-1 application (2 mg/kg, ip).
(§4) Behavioral evaluation. […] Behavioral measurements were then performed with animals freely moving on a flat surface enclosed by an inverted large Plexiglas cage. The total number of ipsilateral and contralateral spontaneous hindpaw flinches (operationally defined as complete lifting of the hindpaw off the testing surface) were counted for consecutive 5 minute periods for a total 60 minute observation period. The total duration of hindpaw lifting and time spent exploring were also recorded.

[2] = tested on: circulating leukocytes; conditions: for Mean number of leukocytes: cyclophosphamide 100 mg/kg
Description: Complete blood counts were serially determined on all animals receiving treatments.

[3] = tested on: normal rats; conditions: cyclophosphamide treatment, FIGS. 11A and B
Experimental: For these experiments only, different groups of treated animals were tested (alternating fashion) on each test day to limit the amount of blood drawn.

[4] = tested on: CCI rats; assay: Thermal hyperalgesia (hindpaw withdrawal latency) after sciatic nerve CCI; type: in vivo, rat
Experimental: (§5) CCI surgery. The sciatic nerve of a rat was exposed after blunt dissection of the biceps femoris. Four chromic gut ligatures (4-0) were placed around a […] section of sciatic nerve in the mid-thigh region. The ligatures were applied so that they constricted the diameter of the nerve just enough to impede circulation through the superficial vasculature (as visualized under an operating microscope at 40×). Sham-operated rats received an identical exposure of the left sciatic nerve without CCI. A coding system blinded the investigators to the nature of the surgery performed on individual rats.
Dexamethasone inhibits CCI-induced pain sensitivity. […] Thermal hyperalgesia was defined as a reduction in the latency to hindpaw withdrawal during a thermal stimulus applied to the plantar surface. […] Presumably, chemotactic signals overwhelmed the effects of DEX by 10 days to account for differences from baseline and between hindpaws at this timepoint (FIG. 8B).

[5] = tested on: sciatic nerve in rats with a chronic constriction injury; assay: Leukocytic profiles in sciatic nerve sections after CCI; type: in vivo, rat
Experimental: as §5
Histology. To compare the extent and type of cellular inflammation around the peripheral nerve due to CCI between DEX- and saline-treated rats, the ligated sciatic nerve was processed for histological analysis. At 3, 5, 7, and 10 days post-CCI, animals were euthanized with 100 mg/kg intraperitoneal sodium pentobarbital, and then transcardially perfused first with 50 ml of cold 0.9% NaCl, 1 ml/g body weight of 4% paraformaldehyde in 0.01 M phosphate buffered saline, pH 7.4 (PBS). A 2-3 cm section of sciatic nerve, or a 1 cm section of L5 and L6 spinal nerves, which included material at the ligation site, as well as that just proximal and distal to ligation, was placed in 0.01 M PBS, 4% paraformaldehyde to post-fix for 2 hours. Tissue was then embedded in paraffin, cut in 10-30 μm sections on a vibratome, and placed on glass slides. Slides were deparaffinized and then hydrated in distilled water prior to staining in freshly filtered Harris' hematoxylin for 6-15 min. After washing in running tap water for 2-5 min, sections were differentiated in 1% acid alcohol, washed briefly in tap water, and then placed in weak ammonia water until sections are bright blue. The sections were then washed thoroughly in running tap water, transferred to 80% ethanol, and then counterstained in eosin-phloxine solution prior to dehydration and mounting with Permount.
Quantitation of leukocytes in nerve sections. To detect leukocytes in injured peripheral nerve, both cellular and […] were used. To be included in the leukocyte cell count, leukocytes had to 1) have a nucleus which was clearly visible and characteristic of an infiltrating macrophage (bean-shaped nucleus), neutrophil (polymorphic nucleus) or lymphocyte (dense nucleus that fills the cytoplasm); 2) have a “foamy” macrophage appearance typical of a myelin-ingesting phagocytes; and 3) be present within the endoneurial space. Cells present within vascular spaces or containing nuclei that could not be clearly differentiated from activated Schwann cells, fibroblasts or endothelial cells were not counted.

[6] = tested on: rat sciatic nerve; assay: Epineurial application of drug to rat sciatic nerve, spontaneous hindpaw flinching; type: in vivo
Description: as §1, §2, §3
In experiments involving repeated administration of ET-1, animals were re-anesthetized 75-80 min after surgery (time point after which no further hindpaw flinching was observed, as described below), and 400 μM ET-1 was applied in the same volume, as described above. Behavioral evaluation was performed, as described below, for an additional 60 min.
as §4
Data Analysis. The peak frequency of hindpaw flinching, effects at 10 min post-drug administration, and area-under-the-curve (without approximation) from 0-60 min were all used to describe response-concentration functions.

[7] = tested on: E1A cells; assay: Microfluorometry (Fura-2) of intracellular calcium in E1A cells; type: cell-based, rat
Experimental: Microfluorometry in E1A cells. E1A cells (retrovirally-transformed rat dorsal root ganglion cells) were grown as a monolayer on poly-L-lysine coated coverslips in Dulbecco's modified eagle media supplemented with 10% fetal bovine serum at 37° C. in a humified atmosphere (5% CO2−95% air). Cells were used 48-72 hours after plating, at a confluence of 75 to 90%. The concentration of intracellular calcium was determined by dual excitation microfluorometry, using the calcium sensitive dye Fura-2 (Grynkiewicz, et.al., J. Biol. Chem. 260: 3440-3450, 1985). E1A cells were washed once with D-PBS (with Ca^++) and then incubated for 30 min at room temperature in D-PBS (with Ca^++) containing 7.5 μM Fura-2/AM and 0.00125% (wt/vol) pluronic-DMSO. The cells were then washed twice in D-PBS (with Ca^++) and incubated for an additional 30 minutes to allow cleavage of the Fura-2/AM to the active Fura-2.
Experiments were conducted with the coverslips in a perfusion chamber of 0.4 ml, with a constant flow rate of 4 ml/min. Each coverslip was equilibrated in D-PBS for 2 min prior to beginning an experiment. […]
Microfluorometry was performed with an inverted epifluoroscence microscope connected to a light source which provided two alternating wavelengths (Photon Technology International Deltascan). […] Background fluorescence was subtracted from each trial.

[8] = naloxone 2 mg/kg ip, 20 min after ET-1

In the case of `CC(C)C[C@@H]1NC(=O)[C@@H](C(C)C)NC(=O)[C@@H]2CCCN2C(=O)[C@@H](CC(=O)O)NC(=O)[C@@H](Cc2c[nH]c3ccccc23)NC1=O` [BQ-123] (cyclo(L[dW][dD]P[dV])), the “effect on ET-1 induced hindpaw flinching” value [1] is reported as “completely blocked” and the “significance of difference from ET-1 alone in hindpaw flinching (FIG. 3)” value [1] is reported as “significant at every time point after 5 min”.
`CCCC[C@@H](NC(=O)[C@@H](Cc1cn(C(=O)OC)c2ccccc12)NC(=O)[C@H](CC(C)(C)C)NC(=O)N1[C@H](C)CCC[C@@H]1C)C(=O)O` [BQ-788] was tested, and the “effect on ET-1 induced hindpaw flinching” value [1] was “reduced hindpaw flinching significantly only at the 40 and 45 min timepoints” and the “significance of difference from ET-1 alone in hindpaw flinching (FIG. 3)” value [1] was “significant at 45 and 50 min”.
With `O=P1(N(CCCl)CCCl)NCCCO1` (centres unmarked) [Cyclophosphamide, cyclophosphamide] the “effect on circulating leukocyte numbers” value ([2]; 100 mg/kg on alternate days×3 days, pre-operatively) was “markedly reduced”, the “Mean number of leukocytes” value ([2]; 1 day) was 0.4 ± 0.1 10^3/ml and the “Mean number of leukocytes” value ([2]; 3 days) was 1.0 ± 0.3 10^3/ml. The “Mean number of leukocytes” value ([2]; 5 days) was 0.5 ± 0.4 10^3/ml, the “Mean number of leukocytes” value ([2]; 8 days) was 4.6 ± .6 10^3/ml and the “Mean number of leukocytes” value ([2]; 10 days) was 7.3 ± 1.8 10^3/ml. The “Mean number of leukocytes” value ([2]; Baseline) was 9.2 ± 0.7 10^3/ml, the “Total white blood cell counts” value ([2]; CYCLO-treated CCI rats, normal rats approximately 9×10^3) was < 1000 µL⁻¹ and the “analgesic effect with respect to thermal pain stimulation in normal animals” value [3] was “no analgesic effects”. For the same compound, the “effect on hyperalgesia response in CCI-treated rats” value ([4]; CYCLO 100 mg/kg alternate days×3 prior to CCI, until leukocyte counts returned toward normal 10 days post-surgery) was “blocked the hyperalgesia response”.
For `C[C@@H]1C[C@H]2[C@@H]3CCC4=CC(=O)C=C[C@]4(C)[C@@]3(F)[C@@H](O)C[C@]2(C)[C@@]1(O)C(=O)CO` [DEX, Dexamethasone], the “Number of leukocytic profiles in sciatic nerve” value (“Number of leukocytic profiles” for short) ([5]; 3 days post-CCI, six high-power fields (0.238 mm^2), mean ± S.D.) was 4.2 ± 0.92, the “Number of leukocytic profiles” value ([5]; 5 days post-CCI, six high-power fields, n = 1) was 12.8 and the “Number of leukocytic profiles” value ([5]; 7 days post-CCI, six high-power fields, mean ± S.D.) was 23.3 ± 26.9. For the same compound, the “Number of leukocytic profiles” value ([5]; 10 days post-CCI, six high-power fields, mean ± S.D.) was 25.7 ± .9 and the “period post-CCI with differences from baseline and contralateral hindpaw eliminated” value ([4]; DEX 1.5 mg/kg i.p. daily) was 3 to 7 days.
In the case of `C=CCN1CC[C@]23c4c5ccc(O)c4O[C@H]2C(=O)CC[C@@]3(O)[C@H]1C5` [Naloxone], the “duration of reversal of the effect of morphine” value [1, 8] is reported as “approximately 10 min” and the “reversal of the effect of morphine on ET-1-induced flinching” value [1, 8] is reported as “rapidly reversed the effect of morphine”.
In the case of `CNC[C@H](O)c1ccc(O)c(O)c1` [epinephrine], the “hindpaw flinching after epinephrine applied to sciatic nerve” value ([6]; 400 μM, 60 min observation period) is reported as “no evidence of hindpaw flinching”.
`CN1CC[C@]23c4c5ccc(O)c4O[C@H]2[C@@H](O)C=C[C@H]3[C@H]1C5` [morphine] was tested, and the “effect on flinching induced by ET-1” value ([1]; morphine 10 mg/kg ip immediately before anesthesia, ET-1 400 μM) was “completely blocked”.
With endothelin-1 [ET-1] the “intracellular Ca++ level reached after ET-1” value ([7]; 400 μl pulse of 13.5 μM ET-1, resting level 50-100 nM) was ~500 nM, the “Fura-2 fluorescence during ET-1 administration” value ([7]; E1A cells, FIG. 7) was “large, rapid, and transient increase” and the “time of peak of flinching behavior and postural changes” value ([6]; 400 μM ET-1) was ≤ 30 min. The “repetitive, spontaneous hindpaw flinching” value ([6]; 400 μM ET-1, 40 μl epineurial, 10-60 min post-administration, vs PBS) was “increased”, the “effect at high concentration on hindpaw flinching” value ([6]; 800 μM) was “apparent inhibitory effect” and the “concentration giving maximum frequency of hindpaw flinching” value ([6]; 40-800 μM tested) was 400 µM. For the same compound, the EC50 ([6]; 10 minutes post ET-1 administration, FIG. 4B, read-out: concentration of half-maximal effect on hindpaw flinching) was 300 µM, the “hindpaw flinching and postural changes after application onto or into muscles surrounding sciatic nerve” value ([6]; same concentration of ET-1, muscle not nerve) was “neither increased hindpaw flinching nor postural changes” and the “hindpaw flinching after second (repeat) treatment” value ([6]; second 400 μM ET-1, 15-20 min after first 60 min testing period) was “did not produce hindpaw flinching that was significantly different from controls”.
